Measured values: paper PMC8662641, “Site-Specific Labeling of Endogenous Proteins Using CoLDR Chemistry” (Journal of the American Chemical Society, 2021)
Values joined by “and” are separate entries in the source; they are usually repeats but may differ in a detail not shown here. Equal entries are not always repeated.

Tests used:
Buffer stability assay = type: physicochemical
Method: A sample of 100 μM of the electrophile (1a–1p) was incubated with 100 μM 4-nitrocyanobenzene as an internal standard in a 100 mM potassium phosphate buffer of pH 8.0. All solvents were bubbled with argon. Reaction mixtures were kept at 37 °C with shaking. After 4 days (unless otherwise mentioned), 5 μL from the reaction mixture was injected into the LC/MS to check the stability of the compounds.

BTK = BTK (Homo sapiens, UniProt Q06187); parameters: BTK kinase domain was expressed and purified as previously reported; made in house; method as in Reddi et al., J. Am. Chem. Soc. 2021, 143 (13), 4979–4992; conditions: ref Reddi et al., J. Am. Chem. Soc. 2021, 143 (13), 4979–4992; cited from earlier work
BTK-1h = target: T1, BTK-1h (Homo sapiens, UniProt Q06187); assay: High-throughput screening with 1h-labeled BTK; type: binding
T1 construct: The BTK kinase domain was diluted to 2 μM in the buffer, and 2 μM 1h was added; made in house
Method: The collection was composed of BTK binding compounds obtained in our previous luminescence screen[37] (Data set S2). […] The resulting BTK-1h (50 μL) was added to the inhibitors.

[1] = Dataset S2A, 200 μM compound, BTK-1h, 32 °C, 10 min

Chain of BTK (Q06187 402-655 limits assumed): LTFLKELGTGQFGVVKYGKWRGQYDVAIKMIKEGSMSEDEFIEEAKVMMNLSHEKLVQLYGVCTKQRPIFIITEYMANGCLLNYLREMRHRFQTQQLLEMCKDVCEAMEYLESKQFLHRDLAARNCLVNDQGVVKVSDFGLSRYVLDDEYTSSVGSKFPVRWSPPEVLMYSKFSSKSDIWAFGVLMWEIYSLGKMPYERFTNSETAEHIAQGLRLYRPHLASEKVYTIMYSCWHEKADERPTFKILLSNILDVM
T1 sequence (Q06187 402-655): as the sequence (Q06187 402-655 limits assumed) above

SMILES | water adduct formed (Buffer stability assay; PBS buffer pH 8, 37 °C) [%] | Ibr-H elimination (Buffer stability assay; phosphate buffer pH 8, 37 °C, after 4 days) [%] | FI (650)/FI (620) (BTK-1h; [1]) | FI (BTK-1h)/FI (BTK-1h+Inhibitor) at 620 nm (BTK-1h; [1]) | FI (BTK-1h)/FI (BTK-1h+Inhibitor) at 620 nm (BTK-1h; Dataset S2B, 200 μM inhibitor added to BTK-1h (2 μm)) | BTK Inhibition reported in luminescence assay* (BTK)
C=C(CN1CCC[C@@H](n2nc(-c3ccc(Oc4ccccc4)cc3)c3c(N)ncnc32)C1)C(=O)NCCOCCOCCOCCOCCC(=O)Nc1cccc2c1CN(C1CCC(=O)NC1=O)C2=O (stereo partly drawn) [1p] | 5 |  |  |  |  | 
C=C(CN1CCC[C@@H](n2nc(-c3ccc(Oc4ccccc4)cc3)c3c(N)ncnc32)C1)C(=O)NCCN [1e] |  | 25 |  |  |  | 
Cc1cc(N=Nc2ccc(S(=O)(=O)Nc3ccccn3)cc2)c(N)cc1O [PCM-0215414-001] |  |  | 1.18 | 1.008 |  | 76.4
CN(c1ncccc1CNc1nc(Nc2ccc3c(c2)CC(=O)N3)ncc1C(F)(F)F)S(C)(=O)=O.O=S(=O)(O)c1ccccc1 [PCM-0095340-005] |  |  | 1.135 | 1.028 |  | 84.8
O=C([O-])CCN1C(=O)/C(=C/c2ccc(-c3ccc([N+](=O)[O-])cc3)o2)SC1=S.[K+] [PCM-0215696-001] |  |  | 0.9958 | 1.02 |  | 59.5
O=[N+]([O-])c1ccc(Nc2ccccc2-c2ccccc2)c2nonc12 [PCM-0215806-001] |  |  | 1.017 | 1.01 |  | 74.1
O=c1cc(-c2ccc(O)cc2)oc2cc(O)c(O)c(O)c12 [PCM-0216408-001, Scutellarein] |  |  | 4.394 | 1.081 | 4.394 | 70.3
COc1cccc2c1C(=O)c1c(O)c3c(c(O)c1C2=O)C[C@@](O)(C(=O)CO)C[C@@H]3O[C@H]1C[C@H](N)[C@H](O[C@@H]2CCCCO2)[C@H](C)O1 [PCM-0214749-001] |  |  | 0.7711 | 1.012 |  | 53.7
O=C(O)c1ccc(C=C2SC(=S)N(c3cccc(C(F)(F)F)c3)C2=O)cc1 [PCM-0095759-002] |  |  | 1.083 | 1.262 |  | 54.1
CO[C@@H](C(=O)N1Cc2[nH]nc(NC(=O)c3ccc(N4CCN(C)CC4)cc3)c2C1)c1ccccc1 [PCM-0094888-003] |  |  | 1.661 | 1.3808 |  | 85.5
N#CC(C#N)=Cc1ccc(O)c(O)c1 [PCM-0064867-001] |  |  | 0.9306 | 1.013 |  | 54.5
CNCc1ccc(C)c(NC(=O)c2ccc(Nc3nc(-c4ccccc4)c4ccccc4n3)cc2)c1 [PCM-0095748-002] |  |  | 1.264 | 1.088 |  | 79.5
NC(=O)c1cnc2[nH]ccc2c1NC1[C@@H]2CC3C[C@H]1CC(O)(C3)C2 (stereo partly drawn) [PCM-0215550-001] |  |  | 1.093 | 1.086 |  | 94.5
Cc1noc(C)c1-c1ccc(-c2cc(C(N)=O)c(NC(N)=O)s2)c(O[C@H]2CCNC2)c1 [PCM-0215541-001, AZD3264] |  |  | 2.057 | 1.467 |  | 74.1
Cl.O=C(c1ccc(OCCN2CCCCC2)cc1)c1c(-c2ccc(O)cc2)sc2cc(O)ccc12 [PCM-0065394-003] |  |  | 1.378 | 1.018 |  | 85.5
CC(C)=CCC/C(C)=C/Cc1c(O)c(CC=C(C)C)c2c(c1O)C(=O)C1=C[C@@H]3C[C@H]4C(C)(C)O[C@@](C/C=C(/C)C(=O)O)(C3=O)[C@@]14O2 [PCM-0216347-001] |  |  | 1.074 | 1.011 |  | 100.4
CNC(=O)c1cc(Oc2ccc(NC(=O)Nc3cc(C(C)(C)C)nn3-c3ccc4ncccc4c3)c(F)c2)ccn1 [PCM-0095514-002] |  |  | 1.156 | 1.374 |  | 98.6
C1=C/COCc2cc(ccc2OCCN2CCCC2)Nc2nccc(n2)-c2cccc(c2)COC/1 [PCM-0215268-001] |  |  | 1.364 | 1.2233 |  | 71.7
COc1cc2nccc(Oc3ccc(NC(=O)C4(C(=O)Nc5ccc(F)cc5)CC4)cc3)c2cc1OC [PCM-0094920-004] |  |  | 1.097 and 1.08 | 1.121 and 1.125 |  | 123.4
CCCCc1oc2ccccc2c1C(=O)c1cc(I)c(OCCN(CC)CC)c(I)c1.Cl [PCM-0064561-003] |  |  | 1.028 | 1.018 |  | 75.5

Now from value to compound, other results behind:

water adduct formed (Buffer stability assay; PBS buffer pH 8, 37 °C) [%] | Ibr-H elimination (Buffer stability assay; phosphate buffer pH 8, 37 °C, after 4 days) [%] | FI (650)/FI (620) (BTK-1h; [1]) | FI (BTK-1h)/FI (BTK-1h+Inhibitor) at 620 nm (BTK-1h; [1]) | FI (BTK-1h)/FI (BTK-1h+Inhibitor) at 620 nm (BTK-1h; Dataset S2B, 200 μM inhibitor added to BTK-1h (2 μm)) | SMILES | BTK Inhibition reported in luminescence assay* (BTK)
 |  | 0.9755 | 1.038 |  | CN1CCN(c2ccc(C(=O)Nc3n[nH]c4ccc(Cc5cc(F)cc(F)c5)cc34)c(NC3CCOCC3)c2)CC1 [PCM-0215551-001] | 102.8
 |  | 1.215 | 1.03 |  | Cc1cc(Nc2nc(N[C@@H](C)c3ccc(F)cc3)c(C#N)cc2F)n[nH]1 [PCM-0095250-002] | 99.3
 |  | 1.5356 | 1.156 |  | C[C@@H](Oc1ccc2[nH]nc(/C=C/c3cnn(CCO)c3)c2c1)c1c(Cl)cncc1Cl [PCM-0215376-001] | 101.4
 |  | 0.9795 | 1.036 |  | Cc1[nH]c(/C=C2\C(=O)Nc3ccccc32)c(C)c1CCC(=O)O [PCM-0095149-002] | 52.4
 |  | 1.609 | 0.9946 |  | COc1ccc2[nH]cc(/C=C3\C(=O)Nc4ccc(NC(=O)CCN5CCCCC5)cc43)c2c1 [PCM-0216653-001] | 51.7
 |  | 1.123 | 1.05 |  | COc1cc2nccc(Oc3ccc(NC(=O)Nc4cc(C)on4)c(Cl)c3)c2cc1OC [PCM-0094927-002] | 84.1
 |  | 1.101 | 1.031 |  | C=CC(=O)Nc1cc(Nc2nccc(-c3c[nH]c4ccccc34)n2)c(OC)cc1N(C)CCN(C)C [PCM-0215489-001] | 91.7
 |  | 1.0625 | 1.055 |  | Cl.O=C1Cc2cc(CCN3CCN(c4nsc5ccccc45)CC3)c(Cl)cc2N1 [PCM-0065598-003] | 52.1
 |  | 0.8604 | 1.035 |  | COCCOC(=O)C1=C(C)NC(C)=C(C(=O)OC/C=C/c2ccccc2)C1c1cccc([N+](=O)[O-])c1 (stereo not drawn) [PCM-0065102-001] | 59.9
 |  | 1.235 | 1.093 |  | Cc1cc(N2CCOCC2)cc2[nH]c(-c3c(NC[C@@H](O)c4cccc(Cl)c4)cc[nH]c3=O)nc12 [PCM-0214699-001] | 109
 |  | 1.117 | 1.096 |  | CCc1cccc(CC)c1NC(=O)N1Cc2[nH]nc(NC(=O)c3ccc(N4CCN(C)CC4)cc3)c2C1 [PCM-0095127-002] | 65.5
 |  | 1.0001 | 1.041 |  | COc1cc(NC(=O)c2ccc(-c3ccc(Cl)cc3)o2)cc(OC)c1 [PCM-0095366-002] | 56.8
 |  | 0.9704 | 1.038 |  | C=CC(=O)Nc1cccc(Oc2nc(Nc3ccc(N4CCN(C)CC4)cc3OC)ncc2Cl)c1 [PCM-0095043-002] | 89
 |  | 0.9254 | 1.084 |  | CN(C)C/C=C/C(=O)Nc1cc2c(Nc3ccc(F)c(Cl)c3)ncnc2cc1O[C@H]1CCOC1 [PCM-0094907-003] | 84.8
 |  | 1.03 | 1.045 |  | Cc1cc(Nc2cc(CN3CCOCC3)c3nc(C)c(Cc4ccc(Cl)cc4F)n3n2)n[nH]1 [PCM-0095222-002] | 56.6
 |  | 1.066 | 1.085 |  | CS(=O)(=O)O.O=C(Nc1cccc(Cl)c1)Nc1ncc(CCNc2ncnc3ccsc23)s1 [PCM-0094983-002] | 73.1
